The results in this text go back to ChEMBL document CHEMBL5352381, “Design and development of a novel series of oral bivalent BET inhibitors with potent anticancer activities” (Eur J Med Chem, 2022).

pIC50: −log10 of the molar value. Activity calls are given as the source filed them. The rule behind the calls is not given here.

As usually defined, the half-life is the time in which the quantity being followed falls by half. The term Tmax denotes the time from dosing to the highest level. Broadly, the Cmax is the peak of the concentration-time curve. Broadly, the AUC(0-t) is exposure summed from dosing to a finite time, without extrapolation to infinity. What is called AUC(0-inf) is total exposure, with the tail of the curve extrapolated. A low value points to low exposure. One may read the MRT as the average time that molecules of a dose stay in the body. The pIC50 is the IC50 on a negative log10 scale, so that one unit is a factor of ten. Read a low pIC50 as a high IC50.

A short description of series [1]: Half life in CD-1 mouse at 10 mg/kg, po. The following applies: in vivo. It is filed as ADME, organism-based.
Series [2] in a line: Tmax in CD-1 mouse at 10 mg/kg, po. In kind it is ADME, organism-based. To be noted: in vivo.
Series [3] can be described thus: Cmax in CD-1 mouse at 10 mg/kg, po. It is filed as ADME, organism-based. The arrangement: dose 10 mg/kg, route po. To be noted: in vivo.
A short description of series [4]: AUClast in CD-1 mouse at 10 mg/kg, po. In kind it is ADME, organism-based. The arrangement: dose 10 mg/kg, route po. The following applies: in vivo.
The nature of series [5]: Observed AUC infinity in CD-1 mouse at 10 mg/kg, po. In kind it is ADME, organism-based. Also noted: dose 10 mg/kg, route po. To be noted: in vivo.
A short description of series [6]: Observed MRT infinity in CD-1 mouse at 10 mg/kg, po. To be noted: in vivo. It is filed as ADME, organism-based.
Series [7] relates to MM1.S. In words: Antitumor activity against human MM1.S cells xenografted in BALB/c nude mouse assessed growth inhibition treated at 3 mg/kg, po qd for 10 days followed by dose adjustment to 1.5 mg/kg from day 11 to 21 due to body weight loss relative to control. In kind it is functional. To be noted: dose 1.5-3 mg/kg, time 21 day, at 1.5 to 3 mg/kg. On the technique in general: Xenograft models place foreign cells or tissue in a host animal.

Series [8] in a line: Toxicity in BALB/c mouse xenografted with human MM1.S assessed body weight loss treated at 3 mg/kg, po qd for 10 days. It is filed as organism-based. The following applies: in vivo, 240 h, time 10 day.
The test system of series [9] is MM1.S. In words: Antitumor activity against human MM1.S cells xenografted in BALB/c nude mouse assessed growth inhibition treated at 1.5 mg/kg, po qd for 10 days adjusted to qod from day 11 to 21 due to body weight loss relative to control. In kind it is functional. To be noted: 504 h, time 21 day, read-out: GI.
Series [10] relates to MM1.S. In words: Antitumor activity against human MM1.S cells xenografted in BALB/c nude mouse assessed growth inhibition treated at 0.5 mg/kg, po qd for 21 days relative to control. In kind it is functional. The following applies: 504 h, time 21 day, read-out: GI.
Series [11] in a line: Toxicity in BALB/c mouse xenografted with human MM1.S assessed body weight loss treated at 1.5 mg/kg, po qd for 10 days. In kind it is organism-based. The following applies: in vivo, 240 h, time 10 day.
Series [12] concerns Ty-82. Nature of the series: Antiproliferative activity against human Ty-82 cells incubated for 72 hrs by sulforhodamine B based cell counting kit-8 assay. To be noted: TY82, 72 h. It is filed as functional. In general terms: Tetrazolium assays rely on reduction of a dye to a coloured formazan, in cell work by metabolically active cells.
Series [13] concerns MM1.S. In words: Antiproliferative activity against human MM1.S cells incubated for 72 hrs by sulforhodamine B based cell counting kit-8 assay. In kind it is functional.
Series [14] in a line: Metabolic stability in human liver microsomes assessed as half life. It is filed as ADME, Microsome. For orientation: Liver microsomes are a subcellular fraction often used to study metabolism.
Series [15] is described as follows: Metabolic stability in dog liver microsomes assessed as half life. It is filed as ADME, Canis lupus familiaris, Microsome.
Series [16] can be described thus: Metabolic stability in mouse liver microsomes assessed as half life. In kind it is ADME, Microsome.
Series [17] is described as follows: Metabolic stability in human liver microsomes assessed as clearance. In kind it is ADME, Microsome. The following applies: read-out: CLH.
Series [18] can be described thus: Metabolic stability in dog liver microsomes assessed as clearance. In kind it is ADME, Canis lupus familiaris, Microsome. The following applies: read-out: CLH.
The nature of series [19]: Metabolic stability in mouse liver microsomes assessed as clearance. It is filed as ADME, Microsome. The following applies: read-out: CLH.
Series [20] relates to Ty-82. In words: Antitumor activity against human Ty-82 cells xenografted in BALB/c nude mouse assessed tumor growth inhibition treated at 0.5 mg/kg, po qd for 21 days relative to control. In kind it is functional. The following applies: TY82, 504 h, time 21 day, read-out: TGI.
The nature of series [21]: Toxicity in BALB/c mouse xenografted with human Ty-82 assessed as body weight loss treated at 0.25 to 0.5 mg/kg, po qd for 21 days. In kind it is organism-based. The following applies: in vivo, 504 h, dose 0.25-0.5 mg/kg, time 21 day.
Series [22] is described as follows: Toxicity in BALB/c mouse xenografted with human Ty-82 assessed as death treated at 0.25 to 0.5 mg/kg, po qd for 21 days. To be noted: in vivo, 504 h, dose 0.25-0.5 mg/kg, time 21 day. In kind it is organism-based.
In series [23] the test system is Ty-82. In words: Induction of apoptosis in human Ty-82 cells assessed as reduction of IDO1 mRNA level at 0.1 to 10 nM for 24 hrs by […]. In kind it is functional, cell-based. To be noted: dose 0.1-10 nM.
Series [24] has as its system Ty-82. In words: Induction of apoptosis in human Ty-82 cells assessed as reduction of c-Myc mRNA level at 0.1 to 10 nM for 24 hrs by […]. In kind it is functional, cell-based. To be noted: dose 0.1-10 nM.
Series [25] has as its system Ty-82. In words: Induction of apoptosis in human Ty-82 cells for 48 hrs by annexin V-FITC based flow cytometric analysis. In kind it is functional, cell-based. To be noted: dose 0.1-10 nM.
The subject of series [26] is CAPAN-1. In words: Induction of apoptosis in human CAPAN-1 cells for 48 hrs by annexin V-FITC based flow cytometric analysis. The following applies: dose 0.1-10 nM. In kind it is functional, cell-based.
The subject of series [27] is Ty-82. In words: Induction of apoptosis in human Ty-82 cells assessed as increase in caspase 9 at 0.1 to 10 nM for 48 hrs […]. It is filed as functional, cell-based. To be noted: dose 0.1-10 nM.
For series [28], the system named is CAPAN-1. Nature of the series: Induction of apoptosis in human CAPAN-1 cells assessed as increase in caspase 9 at 0.1 to 10 nM for 48 hrs […]. In kind it is functional, cell-based. To be noted: dose 0.1-10 nM.
In series [29] the test system is Ty-82. In words: Induction of apoptosis in human Ty-82 cells assessed as increase in caspase 3 at 0.1 to 10 nM for 48 hrs […]. In kind it is functional, cell-based. The following applies: dose 0.1-10 nM.
The subject of series [30] is CAPAN-1. Nature of the series: Induction of apoptosis in human CAPAN-1 cells assessed as increase in caspase 3 at 0.1 to 10 nM for 48 hrs […]. It is filed as functional, cell-based. To be noted: dose 0.1-10 nM.
Series [31] concerns Ty-82. Nature of the series: Induction of apoptosis in human Ty-82 cells assessed as increase in caspase 7 at 0.1 to 10 nM for 48 hrs […]. In kind it is functional, cell-based. To be noted: dose 0.1-10 nM.
Series [32] concerns CAPAN-1. In words: Induction of apoptosis in human CAPAN-1 cells assessed as increase in caspase 7 at 0.1 to 10 nM for 48 hrs […]. In kind it is functional, cell-based. The following applies: dose 0.1-10 nM.
For series [33], the system named is Ty-82. Nature of the series: Induction of apoptosis in human Ty-82 cells assessed as increase in cleaved PARP at 0.1 to 10 nM for 48 hrs […]. It is filed as functional, cell-based. To be noted: dose 0.1-10 nM.
In series [34] the test system is CAPAN-1. In words: Induction of apoptosis in human CAPAN-1 cells assessed as increased cleaved PARP at 0.1 to 10 nM for 48 hrs […]. It is filed as functional, cell-based. The following applies: dose 0.1-10 nM.
The test system of a further series is MV4-11. In words: Antitumor activity against human MV4-11 cells xenografted in BALB/c mouse assessed as growth inhibition at 0.6 mg/kg, po qd 21 days relative to control. It is filed as functional. To be noted: MV4-11, 504 h, time 21 day, read-out: GI.
Series [35] is described as follows: Toxicity in BALB/c mouse xenografted with human MV4-11 cells assessed as body weight loss at 0.6 mg/kg, po qd 21 days. The following applies: in vivo, 504 h, time 21 day. In kind it is organism-based.

`Cc1ccc(-n2nc(C(=O)N3CCN(C(=O)c4nc(-c5ccc6c(c5)N(C5CCCC5)[C@H](C)C(=O)N6C)n(-c5ccc(C)cc5)n4)[C@H](C)C3)nc2-c2ccc3c(c2)N(C2CCCC2)[C@H](C)C(=O)N3C)cc1` showed a half-life in series [1] of 2.82 h. Moreover, the Tmax in series [2] came to 2 h. The molecule further gave a Cmax in series [3] of 823 ng/mL. For the same molecule, the AUC(0-t) in series [4] amounted to 4150 ng·h/mL. The molecule also had an AUC(0-inf) in series [5] of 4170 ng·h/mL. Moreover, the MRT in series [6] was determined as 4.85 h. In addition, the “growth inhibition (GI)” value with MM1.S [7] is recorded as 78.6%. Moreover, the Activity entry in series [8] is given as “Toxic”.

In turn, `Cc1ccc(-n2nc(C(=O)N3C[C@H](C)N(C(=O)c4nc(-c5ccc6c(c5)N(C5CCCC5)[C@H](C)C(=O)N6C)n(-c5ccc(C)cc5)n4)C[C@H]3C)nc2-c2ccc3c(c2)N(C2CCCC2)[C@H](C)C(=O)N3C)cc1` showed a half-life in series [1] of 0.19 h. Moreover, the Tmax in [2] was determined as 2.33 h. The Cmax in series [3] turned out to be 1340 ng/mL. In [4], this molecule yielded an AUC(0-t) of 4570 ng·h/mL. Further, the AUC(0-inf) in series [5] turned out to be 4620 ng·h/mL. This molecule came in with an MRT in series [6] of 3.82 h. In the series on MM1.S [9], the inhibition in vivo at 1.5 mg/kg was 91.5%. The inhibition in vivo at 0.5 mg/kg with MM1.S [10] came out at 66.5%. Besides, the Activity entry in [11] is reported as “Toxic”.

`C[C@@H]1CN(C(=O)c2nc(-c3ccc4c(c3)N(C3CCC3)[C@H](C)C(=O)N4C)n(-c3cccc(Cl)c3)n2)[C@@H](C)CN1C(=O)c1nc(-c2ccc3c(c2)N(C2CCC2)[C@H](C)C(=O)N3C)n(-c2cccc(Cl)c2)n1`: the pIC50 in the series on Ty-82 [12] is 10.30; with MM1.S [13], 10.15. The results for the half-life in series [14], in series [15] and in series [16] were 3.86 h, 14.6 h and 3.72 h, respectively. For the same molecule, the microsomal CLint in series [17] was 6 µL/min/mg; in series [18], 1.6 µL/min/mg; in series [19], 6.2 µL/min/mg. The inhibition in vivo at 0.5 mg/kg with Ty-82 [20] was 73.5%. Also, the Activity result in [21] is “Toxic”; in [22], “Non-Toxic”; in the series on Ty-82 [25] it was “Dose-Dependent Effect”; in the series with CAPAN-1 [26], “Dose-Dependent Effect”; in series [35], “Toxic”. Besides, the result in the series on Ty-82 [23], with Ty-82 [24], in the series with Ty-82 [27], in the series on CAPAN-1 [28], in the series on Ty-82 [29] and with CAPAN-1 [30] was Active. For the same molecule, the outcome with Ty-82 [31], in the series on CAPAN-1 [32], in the series with Ty-82 [33] and in the series with CAPAN-1 [34] was Active. In addition, the inhibition in vivo at 0.6 mg/kg in the series with MV4-11 amounted to 88.9%.
